Experimental data published in publication PMC12400309 (RSC Advances, 2025).

Legend:
[1] = tested on: human oral squamous cell carcinoma (SCC2095); assay: MTT cytotoxicity assay, SCC2095; format: cell-based; conditions: read-out: IC50 SCC2095
[2] = tested on: human breast adenocarcinoma (MCF-7); assay: MTT cytotoxicity assay, MCF-7; format: cell-based; conditions: MCF7, read-out: IC50 MCF-7
[3] = tested on: human gastric adenocarcinoma (SCM-1); assay: MTT cytotoxicity assay, SCM-1; format: cell-based; conditions: read-out: IC50 SCM-1
[4] = tested on: human leukemia MOLT-4 cell line; conditions: cited from earlier work
[5] = tested on: colchicine resistant KB-C2 cell lines; conditions: cited from earlier work

| Molecule | IC50 [1] [µM] | IC50 [3] [µM] | other results |
| --- | --- | --- | --- |
| CC[C@H](CC[C@@H](C)[C@H]1CC[C@H]2[C@@H]3[C@H](O)C=C4C[C@@H](O)CC[C@]4(C)[C@H]3CC[C@]12C)C(C)C [Compound 8, (3β,7α)-stigmast-5-ene-3,7-diol] | > 30 | > 30 | IC50 [2]: > 30 µM |
| COc1cc(C=O)cc(OC)c1O [Compound 14, 4-hydroxy-3,5-dimethoxybenzaldehyde] | > 10 | > 10 | IC50 [2]: > 10 µM |
| COc1cc([C@@H]2c3cc4c(cc3[C@@H](O[C@@H]3O[C@@H]5CO[C@@H](C)O[C@H]5[C@H](O)[C@H]3O)[C@H]3COC(=O)[C@H]23)OCO4)cc(OC)c1O [Etoposide] | 2.5 ± 0.2 |  |  |
| CC(=O)O[C@H]1C(=O)[C@@]2(C)[C@H]([C@H](OC(=O)c3ccccc3)[C@]3(O)C[C@H](OC(=O)[C@H](O)[C@@H](NC(=O)c4ccccc4)c4ccccc4)C(C)=C1C3(C)C)[C@]1(OC(C)=O)CO[C@@H]1C[C@@H]2O [Paclitaxel] |  | 0.07 ± 0.002 |  |
| CC(=O)OC[C@H]1O[C@@H](O[C@@H]2C[C@H]3C(C)(C)[C@H](OC(C)=O)CC[C@]3(C)[C@H]3CC[C@]45C[C@]4(CC[C@H]5[C@@H](C)C[C@@H](O)[C@H](O)C(C)(C)O)[C@@]32C)[C@H](O)[C@@H](O)[C@@H]1O [cumingianoside A] |  |  | ED50 cytotoxicity MOLT-4 [4]: < 6.25 ng/mL |
| COC(C)(C)[C@@H](O)[C@H](O)C[C@H](C)[C@@H]1CC[C@]23C[C@]12CC[C@@H]1[C@@]2(C)CC[C@@H](OC(C)=O)C(C)(C)[C@@H]2C[C@@H](O[C@@H]2O[C@H](COC(C)=O)[C@@H](O)[C@H](O)[C@H]2O)[C@]13C [cumingianoside C] |  |  | ED50 cytotoxicity MOLT-4 [4]: < 4.5 ng/mL |
| cumingianol B |  |  | cytotoxicity against multi-drug resistant KB-C2 cancer cells (in words) [5]: enhanced cytotoxicity |
| dycusin A |  |  | cytotoxicity against multi-drug resistant KB-C2 cancer cells (in words) [5]: enhanced cytotoxicity |
